Measurements as given in patent US12180187B2, “1-phenyl-5-azinylpyrazolyl-3-oxyalkyl acids and their use for controlling unwanted plant growth” (BAYER AKTIENGESELLSCHAFT, priority 2019, dated 2024).

What was measured:
ALOMY [1] = test: Pre-emergence action against ALOMY, 1280 g/ha; assay type: in vivo, Alopecurus myosuroides; conditions: visual scoring after about 3 weeks vs untreated controls, 100% = plants have died, 0% = like control plants
How it was run: (§1)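 Weed seeds sown in sandy loam in pots, covered with soil; compound as WP or EC applied to soil surface as aqueous suspension/emulsion with 0.5% additive at 600 L/ha water. Greenhouse, good growth conditions; visual % damage vs untreated controls after about 3 weeks (100% = plants dead, 0% = like control).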

DIGSA [2] = test: Pre-emergence action against DIGSA, 1280 g/ha; assay type: in vivo, Digitaria sanguinalis; conditions: visual scoring after about 3 weeks vs untreated controls, 100% = plants have died, 0% = like control plants
How it was run: as §1

ECHCG [3] = test: Pre-emergence action against ECHCG, 1280 g/ha; assay type: in vivo, Echinochloa crus-galli; conditions: visual scoring after about 3 weeks vs untreated controls, 100% = plants have died, 0% = like control plants
How it was run: as §1

LOLRI [4] = test: Pre-emergence action against LOLRI, 1280 g/ha; assay type: in vivo, Lolium rigidum; conditions: visual scoring after about 3 weeks vs untreated controls, 100% = plants have died, 0% = like control plants
How it was run: as §1

POAAN [5] = test: Pre-emergence action against POAAN, 1280 g/ha; assay type: in vivo, Poa annua; conditions: visual scoring after about 3 weeks vs untreated controls, 100% = plants have died, 0% = like control plants
How it was run: as §1

SETVI [6] = test: Pre-emergence action against SETVI, 1280 g/ha; assay type: in vivo, Setaria viridis; conditions: visual scoring after about 3 weeks vs untreated controls, 100% = plants have died, 0% = like control plants
How it was run: as §1

AMARE [7] = test: Pre-emergence action against AMARE, 1280 g/ha; assay type: in vivo, Amaranthus retroflexus; conditions: scored visually after about 3 weeks vs untreated controls (100% = plants have died)
How it was run: as §1

KCHSC [8] = test: Pre-emergence action against KCHSC, 1280 g/ha; assay type: in vivo, Bassia scoparia; conditions: scored visually after about 3 weeks vs untreated controls (100% = plants have died)
How it was run: as §1

MATIN [9] = test: Pre-emergence action against MATIN, 1280 g/ha; assay type: in vivo, Tripleurospermum inodorum (Matricaria inodora); conditions: scored visually after about 3 weeks vs untreated controls (100% = plants have died)
How it was run: as §1

STEME [10] = test: Pre-emergence action against STEME, 1280 g/ha; assay type: in vivo, Stellaria media; conditions: scored visually after about 3 weeks vs untreated controls (100% = plants have died)
How it was run: as §1

VERPE [11] = test: Pre-emergence action against VERPE, 1280 g/ha; assay type: in vivo, Veronica persica; conditions: scored visually after about 3 weeks vs untreated controls (100% = plants have died)
How it was run: as §1

ALOMY [12] = test: Post-emergence action against ALOMY, 1.28 kg/ha; assay type: in vivo, Alopecurus myosuroides; conditions: dosage 1280 g/ha, visual rating about 3 weeks after treatment vs untreated controls
How it was run: (§2)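 Greenhouse-grown weeds (sandy loam, twin-sown pots) were treated 2–3 weeks post-sowing at one leaf. The spray was an aqueous WP/EC preparation plus 0.5% additive, applied at 600 L/ha. Scoring was visual at ~3 weeks, 0–100% versus untreated controls.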

DIGSA [13] = test: Post-emergence action against DIGSA, 1.28 kg/ha; assay type: in vivo, Digitaria sanguinalis; conditions: dosage 1280 g/ha, visual rating about 3 weeks after treatment vs untreated controls
How it was run: as §2

ECHCG [14] = test: Post-emergence action against ECHCG, 1.28 kg/ha; assay type: in vivo, Echinochloa crus-galli; conditions: dosage 1280 g/ha, visual rating about 3 weeks after treatment vs untreated controls
How it was run: as §2

LOLRI [15] = test: Post-emergence action against LOLRI, 1.28 kg/ha; assay type: in vivo, Lolium rigidum; conditions: dosage 1280 g/ha, visual rating about 3 weeks after treatment vs untreated controls
How it was run: as §2

POAAN [16] = test: Post-emergence action against POAAN, 1.28 kg/ha; assay type: in vivo, Poa annua; conditions: dosage 1280 g/ha, visual rating about 3 weeks after treatment vs untreated controls
How it was run: as §2

SETVI [17] = test: Post-emergence action against SETVI, 1.28 kg/ha; assay type: in vivo, Setaria viridis; conditions: dosage 1280 g/ha, visual rating about 3 weeks after treatment vs untreated controls
How it was run: as §2

ABUTH = test: Post-emergence action against ABUTH, 1.28 kg/ha; assay type: in vivo, Abutilon theophrasti; conditions: dosage 1280 g/ha, visual rating about 3 weeks after treatment vs untreated controls (100% = plants died)
How it was run: as §2

AMARE [18] = test: Post-emergence action against AMARE, 1.28 kg/ha; assay type: in vivo, Amaranthus retroflexus; conditions: dosage 1280 g/ha, visual rating about 3 weeks after treatment vs untreated controls (100% = plants died)
How it was run: as §2

KCHSC [19] = test: Post-emergence action against KCHSC, 1.28 kg/ha; assay type: in vivo, Bassia scoparia; conditions: dosage 1280 g/ha, visual rating about 3 weeks after treatment vs untreated controls (100% = plants died)
How it was run: as §2

MATIN [20] = test: Post-emergence action against MATIN, 1.28 kg/ha; assay type: in vivo, Tripleurospermum inodorum (Matricaria inodora); conditions: dosage 1280 g/ha, visual rating about 3 weeks after treatment vs untreated controls (100% = plants died)
How it was run: as §2

STEME [21] = test: Post-emergence action against STEME, 1.28 kg/ha; assay type: in vivo, Stellaria media; conditions: dosage 1280 g/ha, visual rating about 3 weeks after treatment vs untreated controls (100% = plants died)
How it was run: as §2

VERPE [22] = test: Post-emergence action against VERPE, 1.28 kg/ha; assay type: in vivo, Veronica persica; conditions: dosage 1280 g/ha, visual rating about 3 weeks after treatment vs untreated controls (100% = plants died)
How it was run: as §2

Row | Compound | Pre-emergence action against DIGSA (DIGSA [2]) [%] | Pre-emergence action against LOLRI (LOLRI [4]) [%] | Pre-emergence action against POAAN (POAAN [5]) [%] | Pre-emergence action against SETVI (SETVI [6]) [%] | Pre-emergence action against AMARE (AMARE [7]) [%] | Pre-emergence action against KCHSC (KCHSC [8]) [%] | Pre-emergence action against MATIN (MATIN [9]) [%] | Pre-emergence action against STEME (STEME [10]) [%] | Pre-emergence action against VERPE (VERPE [11]) [%] | Post-emergence action against ALOMY (ALOMY [12]) [%] | Post-emergence action against DIGSA (DIGSA [13]) [%] | Post-emergence action against ECHCG (ECHCG [14]) [%] | Post-emergence action against LOLRI (LOLRI [15]) [%] | Post-emergence action against POAAN (POAAN [16]) [%] | Post-emergence action against SETVI (SETVI [17]) [%] | Post-emergence action against ABUTH (ABUTH) [%] | Post-emergence action against AMARE (AMARE [18]) [%] | Post-emergence action against KCHSC (KCHSC [19]) [%] | Post-emergence action against MATIN (MATIN [20]) [%] | Post-emergence action against STEME (STEME [21]) [%] | also measured
1 | CONC(=O)COc1nn(-c2ccc(F)cc2F)c(-c2ccc(F)nc2)c1Br [Example X-024] | 100 | 100 | 100 | 100 | 100 | 100 | 100 | 100 | 100 | 100 | 100 | 100 | 100 | 100 | 90 | 100 | 100 | 90 | 90 | 100 | Pre-emergence action against ALOMY (ALOMY [1]): 100%; Pre-emergence action against ECHCG (ECHCG [3]): 100%; Post-emergence action against VERPE (VERPE [22]): 100%
2 | CCOC(=O)COc1nn(-c2ccc(F)cc2)c(-c2ccc(F)nc2)c1Br [VII-065] | 100 | 100 | 100 | 100 | 100 | 100 | 90 | 100 | 100 | 100 | 100 | 100 | 90 | 100 | 90 | 90 | 90 | 100 | 100 | 100 | Pre-emergence action against ALOMY (ALOMY [1]): 100%; Pre-emergence action against ECHCG (ECHCG [3]): 100%; Post-emergence action against VERPE (VERPE [22]): 90%
3 | O=C(O)COc1nn(-c2ccc(F)cc2F)c(-c2ccc(F)nc2)c1Br [VII-100] | 90 | 100 | 100 | 90 | 100 | 100 | 100 | 100 | 100 | 100 | 90 | 90 | 100 | 100 | 100 | 90 | 100 | 90 | 90 | 100 | Post-emergence action against VERPE (VERPE [22]): 100%
4 | CCOC(=O)COc1nn(-c2ccc(F)cc2F)c(-c2ccc(F)nc2)c1Br [VII-101] | 100 | 100 | 100 | 100 | 100 | 100 | 100 | 100 | 100 | 100 | 100 | 100 | 100 | 100 | 100 | 90 | 90 | 90 | 100 | 100 | Pre-emergence action against ALOMY (ALOMY [1]): 100%; Pre-emergence action against ECHCG (ECHCG [3]): 90%; Post-emergence action against VERPE (VERPE [22]): 100%
